Laboratory results: patent publication US9994555B2, “Chromenone inhibitors of monocarboxylate transporters” (THE SCRIPPS RESEARCH INSTITUTE, priority 2015, dated 2018)

Test system: Raji (Burkitt's) lymphoma cells
Experiment: MTT assay for 4-day viability of Raji (Burkitt's) lymphoma cells
Format: cell-based
Conditions: Homo sapiens, 96 h, Raji (Burkitt's) lymphoma cells highly expressing MCT1, estimated EC50 given as bin, read-out: approximate potency (EC50)
Source text: Specific Examples of compounds of the invention, with estimated EC50 values determined using an MTT assay for 4-day viability of Raji (Burkitt's) lymphoma cells, a cell line known to highly express MCT1 and to be sensitive to small molecule MCT inhibitors,^4 are shown in Table 8. Assay protocols follow those described in the literature.^4 Other assays that are not described here but that are standard in the field, such as an assay for competitive inhibition of transport of radiolabeled lactic acid, an MCT substrate, may also be useful in establishing mechanism of action of these compounds.

| SMILES | EC50 [nM] |
| --- | --- |
| CC(C)c1cc(=O)c2c(OCc3ccccc3CO)cc(OCc3cccc(C(F)(F)F)c3)cc2o1 [Example 12, 5-((2-(hydroxymethyl)benzyl)oxy)-2-isopropyl-7-((3-(trifluoromethyl)benzyl)oxy)-4H-chromen-4-one] | ≤ 100 |
| CC(C)c1cc(=O)c2c(-c3ccccc3CO)cc(OCc3cccc4ccccc34)cc2o1 [Example 44] | ≥ 10000 |
| Cc1cc(=O)c2c(OCc3ccccc3CO)cc(Oc3ccnc4ccccc34)cc2o1 [Example 31, 5-((2-(hydroxymethyl)benzyl)oxy)-2-methyl-7-(quinolin-4-yloxy)-4H-chromen-4-one] | 100 to 1000 |
| O=c1cc(-c2ccccc2)oc2cc(Oc3ccnc4ccccc34)cc(OCC(O)CO)c12 (stereo not drawn) [Example 27, 5-(2,3-dihydroxypropoxy)-2-phenyl-7-(quinolin-4-yloxy)-4H-chromen-4-one] | ≥ 10000 |
| CC(C)c1cc(=O)c2c(OCc3ccccc3CO)cc(OCc3cncnc3)cc2o1 [Example 33, 5-((2-(hydroxymethyl)benzyl)oxy)-2-isopropyl-7-(pyrimidin-5-ylmethoxy)-4H-chromen-4-one] | 100 to 1000 |
| CC(C)c1cc(=O)c2c(OCc3ccccc3CO)cc(OCc3cccnc3)cc2o1 [Example 14, 5-((2-(hydroxymethyl)benzyl)oxy)-2-isopropyl-7-(pyridin-3-ylmethoxy)-4H-chromen-4-one] | ≤ 100 |
| CC(C)c1cc(=O)c2c(N3CCC(CO)CC3)cc(OCc3cccc4ccccc34)cc2o1 [Example 50, 5-(4-(hydroxymethyl)piperidin-1-yl)-2-isopropyl-7-(naphthalen-1-ylmethoxy)-4H-chromen-4-one] | 1000 to 10000 |
| CC(C)c1cc(=O)c2c(-c3cccc(CO)c3F)cc(OCc3cccc4ccccc34)cc2o1 [Example 41, 5-(2-fluoro-3-(hydroxymethyl)phenyl)-2-isopropyl-7-(naphthalen-1-ylmethoxy)-4H-chromen-4-one] | ≥ 10000 |
| O=c1cc(C2CC2)oc2cc(OCc3cccc4ccccc34)cc(OCc3ccccc3CO)c12 [Example 22, 2-cyclopropyl-5-((2-(hydroxymethyl)benzyl)oxy)-7-(naphthalen-1-ylmethoxy)-4H-chromen-4-one] | 100 to 1000 |
| CC(C)c1cc(=O)c2c(OCc3ccccc3CO)cc(Oc3ncccc3C(F)(F)F)cc2o1 [Example 11, 5-((2-(hydroxymethyl)benzyl)oxy)-2-isopropyl-7-((3-(trifluoromethyl)pyridin-2-yl)oxy)-4H-chromen-4-one] | ≤ 100 |
| CC(C)c1cc(=O)c2c(-c3cccc(CO)c3)cc(Oc3ccnc4ccccc34)cc2o1 [Example 42, 5-(3-(hydroxymethyl)phenyl)-2-isopropyl-7-(quinolin-4-yloxy)-4H-chromen-4-one] | 100 to 1000 |
| CC(C)c1cc(=O)c2c(NCCCO)cc(OCc3cccc4ccccc34)cc2o1 [Example 48, 5-((3-hydroxypropyl)amino)-2-isopropyl-7-(naphthalen-1-ylmethoxy)-4H-chromen-4-one] | 1000 to 10000 |
| CC(C)c1cc(=O)c2c(OCc3ccccc3CO)cc(OCc3ccnc4ccccc34)cc2o1 [Example 24, 5-((2-(hydroxymethyl)benzyl)oxy)-2-isopropyl-7-(quinolin-4-ylmethoxy)-4H-chromen-4-one] | ≤ 100 |
| CC(C)c1cc(=O)c2c(OCc3ccccc3CO)cc(OCc3cccnc3C(F)(F)F)cc2o1 [Example 10, 5-((2-(hydroxymethyl)benzyl)oxy)-2-isopropyl-7-((2-(trifluoromethyl)pyridin-3-yl)methoxy)-4H-chromen-4-one] | ≤ 100 |
| CC(C)c1cc(=O)c2c(Nc3cccc(CO)c3)cc(OCc3cccc4ccccc34)cc2o1 [Example 49, 5-((3-(hydroxymethyl)phenyl)amino)-2-isopropyl-7-(naphthalen-1-ylmethoxy)-4H-chromen-4-one] | ≥ 10000 |
| CC(C)c1cc(=O)c2c(NCCCCCO)cc(OCc3cccc4ccccc34)cc2o1 [Example 47, 5-((5-hydroxypentyl)amino)-2-isopropyl-7-(naphthalen-1-ylmethoxy)-4H-chromen-4-one] | ≥ 10000 |
| CC(C)c1cc(=O)c2c(OCc3ccccc3CO)cc(Oc3ccnc4ccccc34)cc2o1 [Example 9, 5-((2-(hydroxymethyl)benzyl)oxy)-2-isopropyl-7-(quinolin-4-yloxy)-4H-chromen-4-one] | ≤ 100 |
| CC(C)c1cc(=O)c2c(OCc3ccccc3CO)cc(OCc3cccc4cccnc34)cc2o1 [Example 19, 5-((2-(hydroxymethyl)benzyl)oxy)-2-isopropyl-7-(quinolin-8-ylmethoxy)-4H-chromen-4-one] | ≤ 100 |
| O=c1cc(-c2ccccc2)oc2cc(OCc3cccc4ccccc34)cc(OCCCCO)c12 [Example 29, 5-(4-hydroxybutoxy)-7-(naphthalen-1-ylmethoxy)-2-phenyl-4H-chromen-4-one] | 1000 to 10000 |
| CC(C)c1cc(=O)c2c(OCc3ccccc3CO)cc(Oc3cc(C(F)(F)F)ccn3)cc2o1 [Example 32, 5-((2-(hydroxymethyl)benzyl)oxy)-2-isopropyl-7-((4-(trifluoromethyl)pyridin-2-yl)oxy)-4H-chromen-4-one] | 100 to 1000 |

| SMILES | EC50 [nM] |
| --- | --- |
| CC(C)c1cc(=O)c2c(CCCCO)cc(OCc3cccc4ccccc34)cc2o1 [Example 36, 5-(4-hydroxybutyl)-2-isopropyl-7-(naphthalen-1-ylmethoxy)-4H-chromen-4-one] | 1000 to 10000 |
| CC(C)c1cc(=O)c2c(-c3cc(CO)ccc3Cl)cc(OCc3cccc4ccccc34)cc2o1 [Example 39, 5-(2-chloro-5-(hydroxymethyl)phenyl)-2-isopropyl-7-(naphthalen-1-ylmethoxy)-4H-chromen-4-one] | 1000 to 10000 |
| CC(C)c1cc(=O)c2c(OCCCO)cc(OCc3cccc4ccccc34)cc2o1 [Example 7, 5-(3-hydroxypropoxy)-2-isopropyl-7-(naphthalen-1-ylmethoxy)-4H-chromen-4-one] | 100 to 1000 |
| CC(C)c1cc(=O)c2c(CCCCCO)cc(OCc3cccc4ccccc34)cc2o1 [Example 37, 5-(5-hydroxypentyl)-2-isopropyl-7-(naphthalen-1-ylmethoxy)-4H-chromen-4-one] | 1000 to 10000 |
| CC(C)c1cc(=O)c2c(OCc3ccccc3CO)cc(OCc3cncc(C(F)(F)F)c3)cc2o1 [Example 16, 5-((2-(hydroxymethyl)benzyl)oxy)-2-isopropyl-7-((5-(trifluoromethyl)pyridin-3-yl)methoxy)-4H-chromen-4-one] | ≤ 100 |
| CC(C)c1cc(=O)c2c(OCc3ccccc3CO)cc(Oc3ccncc3C(F)(F)F)cc2o1 [Example 17, 5-((2-(hydroxymethyl)benzyl)oxy)-2-isopropyl-7-((3-(trifluoromethyl)pyridin-4-yl)oxy)-4H-chromen-4-one] | ≤ 100 |
| CC(C)c1cc(=O)c2c(OCc3ccccc3CO)cc(OCc3cccc4ccccc34)cc2o1 [Example 8, 5-((2-(hydroxymethyl)benzyl)oxy)-2-isopropyl-7-(naphthalen-1-ylmethoxy)-4H-chromen-4-one] | ≤ 100 |
| O=c1cc(C2CC2)oc2cc(OCc3cccnc3C(F)(F)F)cc(OCc3ccccc3CO)c12 [Example 23, 2-cyclopropyl-5-((2-(hydroxymethyl)benzyl)oxy)-7-((2-(trifluoromethyl)pyridin-3-yl)methoxy)-4H-chromen-4-one] | ≤ 100 |
| CC(C)c1cc(=O)c2c(OCCCCO)cc(COc3cccc4ccccc34)cc2o1 [Example 35, 5-(4-hydroxybutoxy)-2-isopropyl-7-((naphthalen-1-yloxy)methyl)-4H-chromen-4-one] | 1000 to 10000 |
| CC(C)c1cc(=O)c2c(OCCCCO)cc(OCc3ccnc4ccccc34)cc2o1 [Example 30, 5-(4-hydroxybutoxy)-2-isopropyl-7-(quinolin-4-ylmethoxy)-4H-chromen-4-one] | ≤ 100 |
| O=c1cc(-c2ccccc2)oc2cc(Oc3ccnc4ccccc34)cc(OCCCO)c12 [Example 26, 5-(3-hydroxypropoxy)-2-phenyl-7-(quinolin-4-yloxy)-4H-chromen-4-one] | 1000 to 10000 |
| CC(C)c1cc(=O)c2c(OCCCO)cc(OCc3ccnc4ccccc34)cc2o1 [Example 6, 5-(3-hydroxypropoxy)-2-isopropyl-7-(quinolin-4-ylmethoxy)-4H-chromen-4-one] | 100 to 1000 |
| CC(C)c1cc(=O)c2c(OCCCCO)cc(OCc3cccc4ccccc34)cc2o1 [Example 5, 5-(4-hydroxybutoxy)-2-isopropyl-7-(naphthalen-1-ylmethoxy)-4H-chromen-4-one] | 100 to 1000 |
| CC(C)c1cc(=O)c2c(OCc3ccccc3CO)cc(OCc3ccccn3)cc2o1 [Example 13, 5-((2-(hydroxymethyl)benzyl)oxy)-2-isopropyl-7-(pyridin-2-ylmethoxy)-4H-chromen-4-one] | ≤ 100 |
| CC(C)c1cc(=O)c2c(OCc3ccccc3CO)cc(OCc3cnc(Cl)c4ccccc34)cc2o1 [Example 25, 7-((1-chloroisoquinolin-4-yl)methoxy)-5-((2-(hydroxymethyl)benzyl)oxy)-2-isopropyl-4H-chromen-4-one] | ≤ 100 |
| Cc1cc(=O)c2c(OCCCO)cc(Oc3ccnc4ccccc34)cc2o1 [Example 1, 5-(3-hydroxypropoxy)-2-methyl-7-(quinolin-4-yloxy)-4H-chromen-4-one] | 1000 to 10000 |
| CC(C)c1cc(=O)c2c(NCCCCO)cc(OCc3cccc4ccccc34)cc2o1 [Example 46, 5-((4-hydroxybutyl)amino)-2-isopropyl-7-(naphthalen-1-ylmethoxy)-4H-chromen-4-one] | 1000 to 10000 |
| CC(C)c1cc(=O)c2c(OCc3ccccc3CO)cc(OCc3ccc4ncccc4c3)cc2o1 [Example 21, 5-((2-(hydroxymethyl)benzyl)oxy)-2-isopropyl-7-(quinolin-6-ylmethoxy)-4H-chromen-4-one] | 100 to 1000 |
| CC(C)c1cc(=O)c2c(-c3ccc(CO)cc3)cc(OCc3cccc4ccccc34)cc2o1 [Example 45] | 1000 to 10000 |
